molecular target: T1, human plasma protein factor Xa (Homo sapiens, UniProt P00742); assay: Factor Xa IC50 determination: cleavage of paranitroanilide substrate S-2765 in 96-well plates; type: biochemical; details: fXa 1 nM, S-2765 100 μM, Tris buffered saline pH 7.4, room temperature
T1 construct: measure proteolytic activity of the enzyme (factor Xa); purchased Haematologic Technologies (Essex Junction, Vt.); host or cells: human plasma
In short: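 Initial rates of S-2765 (100 μM final) cleavage, read at 405 nm for 2 min, fitted with a four-parameter equation to give IC50. Enzyme: 1 nM human plasma fXa, 5 min room-temperature preincubation with inhibitor (0.01 nM–10 μM) in 20 mM Tris, 150 mM NaCl, 5 mM CaCl2, 0.1% BSA, 5% DMSO, pH 7.4; duplicates.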

T1 sequence (P00742 235-488 limits assumed): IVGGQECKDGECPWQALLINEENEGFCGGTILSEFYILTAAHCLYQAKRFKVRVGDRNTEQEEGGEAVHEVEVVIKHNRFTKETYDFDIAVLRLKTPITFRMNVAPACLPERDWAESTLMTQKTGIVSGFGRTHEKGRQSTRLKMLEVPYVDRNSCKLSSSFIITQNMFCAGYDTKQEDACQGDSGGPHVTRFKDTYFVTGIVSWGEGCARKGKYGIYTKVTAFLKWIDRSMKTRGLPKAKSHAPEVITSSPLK
T1 sequence (P00742 41-179 partner limits assumed): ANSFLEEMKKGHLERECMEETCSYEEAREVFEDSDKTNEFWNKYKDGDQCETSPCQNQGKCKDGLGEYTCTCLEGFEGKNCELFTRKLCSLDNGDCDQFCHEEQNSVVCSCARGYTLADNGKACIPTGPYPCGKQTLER

IC50, ≤ 100 nM:
COc1cc(C2=NCCN2C)ccc1C1=NOC(CNC(=O)c2ccc(Cl)s2)C1 (centres unmarked) [Example 103, 5-Chloro-thiophene-2-carboxylic acid {3-[2-methoxy-4-(1-methyl-4,5-dihydro-1H-imidazol-2-yl)-phenyl]-4,5-dihydro-isoxazol-5-ylmethyl}-amide]
COc1cc(C(=N)N2CCCC2)ccc1C1=NOC(CNC(=O)c2ccc(Cl)s2)C1 (centres unmarked) [Example 104, 5-Chloro-thiophene-2-carboxylic acid {3-[4-(imino-pyrrolidin-1-yl-methyl)-2-methoxy-phenyl]-4,5-dihydro-isoxazol-5-ylmethyl}-amide]
COc1cc(C(=N)N2CCCCC2)ccc1C1=NOC(CNC(=O)c2ccc(Cl)s2)C1 (centres unmarked) [Example 105, 5-Chloro-thiophene-2-carboxylic acid {3-[4-(imino-piperidin-1-yl-methyl)-2-methoxy-phenyl]-4,5-dihydro-isoxazol-5-ylmethyl}-amide]
CCOc1cc(C(=N)N(C)C)ccc1C1=NOC(CNC(=O)c2ccc(Cl)s2)C1 (centres unmarked) [Example 106, 5-Chloro-thiophene-2-carboxylic acid {3-[4-(N,N-dimethyl-carbamimidoyl)-2-ethoxy-phenyl]-4,5-dihydro-isoxazol-5-ylmethyl}-amide]
CCOc1cc(C2=NCCN2C)ccc1C1=NOC(CNC(=O)c2ccc(Cl)s2)C1 (centres unmarked) [Example 107, 5-Chloro-thiophene-2-carboxylic acid {3-[2-ethoxy-4-(1-methyl-4,5-dihydro-1H-imidazol-2-yl)-phenyl]-4,5-dihydro-isoxazol-5-ylmethyl}-amide]
CCOc1cc(C(=N)N2CCCC2)ccc1C1=NOC(CNC(=O)c2ccc(Cl)s2)C1 (centres unmarked) [Example 108, 5-Chloro-thiophene-2-carboxylic acid {3-[2-ethoxy-4-(imino-pyrrolidin-1-yl-methyl)-phenyl]-4,5-dihydro-isoxazol-5-ylmethyl}-amide]
CC(C)Oc1cc(C(=N)N(C)C)ccc1C1=NOC(CNC(=O)c2ccc(Cl)s2)C1 (centres unmarked) [Example 109, 5-Chloro-thiophene-2-carboxylic acid {3-[4-(N,N-dimethyl-carbamimidoyl)-2-isopropoxy-phenyl]-4,5-dihydro-isoxazol-5-ylmethyl}-amide]
CC(C)Oc1cc(C2=NCCN2C)ccc1C1=NOC(CNC(=O)c2ccc(Cl)s2)C1 (centres unmarked) [Example 110, 5-Chloro-thiophene-2-carboxylic acid {3-[2-isopropoxy-4-(1-methyl-4,5-dihydro-1H-imidazol-2-yl)-phenyl]-4,5-dihydro-isoxazol-5-ylmethyl}-amide]
CC(C)Oc1cc(C(=N)N2CCCC2)ccc1C1=NOC(CNC(=O)c2ccc(Cl)s2)C1 (centres unmarked) [Example 111, 5-Chloro-thiophene-2-carboxylic acid {3-[4-(imino-pyrrolidin-1-yl-methyl)-2-isopropoxy-phenyl]-4,5-dihydro-isoxazol-5-ylmethyl}-amide]
CN(C)C(=N)c1ccc(C2=NOC(CNC(=O)c3ccc(Cl)s3)C2)c(OC2CCCC2)c1 (centres unmarked) [Example 112, 5-Chloro-thiophene-2-carboxylic acid {3-[2-cyclopentyloxy-4-(N,N-dimethyl-carbamimidoyl)-phenyl]-4,5-dihydro-isoxazol-5-ylmethyl}-amide]
CN1CCN=C1c1ccc(C2=NOC(CNC(=O)c3ccc(Cl)s3)C2)c(OC2CCCC2)c1 (centres unmarked) [Example 113, 5-Chloro-thiophene-2-carboxylic acid {3-[2-cyclopentyloxy-4-(1-methyl-4,5-dihydro-1H-imidazol-2-yl)-phenyl]-4,5-dihydro-isoxazol-5-ylmethyl}-amide]
N=C(c1ccc(C2=NOC(CNC(=O)c3ccc(Cl)s3)C2)c(OC2CCCC2)c1)N1CCCC1 (centres unmarked) [Example 114, 5-Chloro-thiophene-2-carboxylic acid {3-[2-cyclopentyloxy-4-(imino-pyrrolidin-1-yl-methyl)-phenyl]-4,5-dihydro-isoxazol-5-ylmethyl}-amide]
CN(C)C(=N)c1ccc(C2=NOC(CNC(=O)c3ccc(Cl)s3)C2)c(OC2CCCCC2)c1 (centres unmarked) [Example 115, 5-Chloro-thiophene-2-carboxylic acid {3-[2-cyclohexyloxy-4-(N,N-dimethyl-carbamimidoyl)-phenyl]-4,5-dihydro-isoxazol-5-ylmethyl}-amide]
CN1CCN=C1c1ccc(C2=NOC(CNC(=O)c3ccc(Cl)s3)C2)c(OC2CCCCC2)c1 (centres unmarked) [Example 116, 5-Chloro-thiophene-2-carboxylic acid {3-[2-cyclohexyloxy-4-(1-methyl-4,5-dihydro-1H-imidazol-2-yl)-phenyl]-4,5-dihydro-isoxazol-5-ylmethyl}-amide]
N=C(c1ccc(C2=NOC(CNC(=O)c3ccc(Cl)s3)C2)c(OC2CCCCC2)c1)N1CCCC1 (centres unmarked) [Example 117, 5-Chloro-thiophene-2-carboxylic acid {3-[2-cyclohexyloxy-4-(imino-pyrrolidin-1-yl-methyl)-phenyl]-4,5-dihydro-isoxazol-5-ylmethyl}-amide]
COc1cc(C(=N)N(C)C)ccc1-c1cc(CNC(=O)c2ccc(Cl)s2)on1 [Example 118, 5-Chloro-thiophene-2-carboxylic acid {3-[4-(N,N-dimethyl-carbamimidoyl)-2-methoxy-phenyl]-isoxazol-5-ylmethyl}-amide]
COc1cc(C2=NCCN2C)ccc1-c1cc(CNC(=O)c2ccc(Cl)s2)on1 [Example 119, 5-Chloro-thiophene-2-carboxylic acid {3-[2-methoxy-4-(1-methyl-4,5-dihydro-1H-imidazol-2-yl)-phenyl]-isoxazol-5-ylmethyl}-amide]
COc1cc(C(=N)N2CCCC2)ccc1-c1cc(CNC(=O)c2ccc(Cl)s2)on1 [Example 120, 5-Chloro-thiophene-2-carboxylic acid {3-[4-(imino-pyrrolidin-1-yl-methyl)-2-methoxy-phenyl]-isoxazol-5-ylmethyl}-amide]
COc1cc(C(=N)N2CCCCC2)ccc1-c1cc(CNC(=O)c2ccc(Cl)s2)on1 [Example 121, 5-Chloro-thiophene-2-carboxylic acid {3-[4-(imino-piperidin-1-yl-methyl)-2-methoxy-phenyl]-isoxazol-5-ylmethyl}-amide]
CCOc1cc(C(=N)N(C)C)ccc1-c1cc(CNC(=O)c2ccc(Cl)s2)on1 [Example 122, 5-Chloro-thiophene-2-carboxylic acid {3-[4-(N,N-dimethyl-carbamimidoyl)-2-ethoxy-phenyl]-isoxazol-5-ylmethyl}-amide]
CCOc1cc(C2=NCCN2C)ccc1-c1cc(CNC(=O)c2ccc(Cl)s2)on1 [Example 123, 5-Chloro-thiophene-2-carboxylic acid {3-[2-ethoxy-4-(1-methyl-4,5-dihydro-1H-imidazol-2-yl)-phenyl]-isoxazol-5-ylmethyl}-amide]
CCOc1cc(C(=N)N2CCCC2)ccc1-c1cc(CNC(=O)c2ccc(Cl)s2)on1 [Example 124, 5-Chloro-thiophene-2-carboxylic acid {3-[2-ethoxy-4-(imino-pyrrolidin-1-yl-methyl)-phenyl]-isoxazol-5-ylmethyl}-amide]
CCOc1cc(C(=N)N2CCCCC2)ccc1-c1cc(CNC(=O)c2ccc(Cl)s2)on1 [Example 125, 5-Chloro-thiophene-2-carboxylic acid {3-[2-ethoxy-4-(imino-piperidin-1-yl-methyl)-phenyl]-isoxazol-5-ylmethyl}-amide]
CC(C)Oc1cc(C(=N)N(C)C)ccc1-c1cc(CNC(=O)c2ccc(Cl)s2)on1 [Example 126, 5-Chloro-thiophene-2-carboxylic acid {3-[4-(N,N-dimethyl-carbamimidoyl)-2-isopropoxy-phenyl]-isoxazol-5-ylmethyl}-amide]
CC(C)Oc1cc(C2=NCCN2C)ccc1-c1cc(CNC(=O)c2ccc(Cl)s2)on1 [Example 127, 5-Chloro-thiophene-2-carboxylic acid {3-[2-isopropoxy-4-(1-methyl-4,5-dihydro-1H-imidazol-2-yl)-phenyl]-isoxazol-5-ylmethyl}-amide]
CC(C)Oc1cc(C(=N)N2CCCC2)ccc1-c1cc(CNC(=O)c2ccc(Cl)s2)on1 [Example 128, 5-Chloro-thiophene-2-carboxylic acid {3-[4-(imino-pyrrolidin-1-yl-methyl)-2-isopropoxy-phenyl]-isoxazol-5-ylmethyl}-amide]
CC(C)Oc1cc(C(=N)N2CCCCC2)ccc1-c1cc(CNC(=O)c2ccc(Cl)s2)on1 [Example 129, 5-Chloro-thiophene-2-carboxylic acid {3-[4-(imino-piperidin-1-yl-methyl)-2-isopropoxy-phenyl]-isoxazol-5-ylmethyl}-amide]
CN(C)C(=N)c1ccc(-c2cc(CNC(=O)c3ccc(Cl)s3)on2)c(Oc2ccccc2)c1 [Example 130, 5-Chloro-thiophene-2-carboxylic acid {3-[4-(N,N-dimethyl-carbamimidoyl)-2-phenoxy-phenyl]-isoxazol-5-ylmethyl}-amide]
CN1CCN=C1c1ccc(-c2cc(CNC(=O)c3ccc(Cl)s3)on2)c(Oc2ccccc2)c1 [Example 131, 5-Chloro-thiophene-2-carboxylic acid {3-[4-(1-methyl-4,5-dihydro-1H-imidazol-2-yl)-2-phenoxy-phenyl]-isoxazol-5-ylmethyl}-amide]

From US8377974B2 (Millennium Pharmaceuticals, Inc., priority 2004, dated 2013)
